This experiment relates to MDA-MB-231 cells. The experiment can be described thus: FabZAP antibody internalization assay, MDA-MB-231. Format: cell-based, human. The conditions noted are these: MDA-MB-231, 3 days. On the procedure:
Internalization of MEDI9447 into cell lines MDA-MB-231 (human mammary carcinoma) and 4T1 (murine mammary carcinoma) was assessed using a human Antibody Internalization Kit that is sold commercially as the FabZAP assay (Advanced Targeting Systems, San Diego Calif.). Serial dilutions of MEDI9447 or negative control antibody R347 were pre-incubated with 40 nM FabZAP reagent (Fab fragment of a polyclonal anti-human IgG antibody conjugated to the cytotoxic protein saporin) and then added to the cell lines. After 3 days in culture, cell proliferation was measured using a luminescent cell viability assay sold commercially as the CELLTITER-GLO® assay (Promega, Madison Wis.). This assay was used to calculate EC50 values and maximum toxicity. […]
Cell proliferation of MDA-MB-231 cells and 4T1 cells treated with serial dilutions of test antibody and FabZAP reagent was measured by CELLTITER-GLO® assay (FIG. 2). The signal from the negative control antibody R347 in the CELLTITER-GLO® assay was subtracted from the signal of MEDI9447 and the EC50 value and maximum toxicity were calculated by fitting the dose-response curve using non-linear regression analysis.
1,000 cells/well were cultured in 96 well plates in RPMI/10% FBS. […] After 3 days incubation at 37C, the cell proliferation was measured using the CELLTITER-GLO® assay (Promega, Madison Wis.).

In turn, “MEDI9447: IgG1 with CD730010-derived VL of SEQ ID NO: 68 and VH of SEQ ID NO: 82” yielded a maximum toxicity of 97%.
